{
  "source": "ChEMBL document CHEMBL1132890",
  "about": "“Prediction of drug solubility from Monte Carlo simulations” (Bioorg Med Chem Lett, 2000)",
  "data": [
    {"conditions": "buffer", "values": [
      {"molecule": "O=C(O)Cc1ccccc1Oc1ccc(Cl)cc1Cl", "note": "[FENCLOFENAC]", "Log S": -3.85},
      {"molecule": "CCOC(=O)NCCOc1ccc(Oc2ccccc2)cc1", "note": "[PHENOXYCARB]", "Log S": -4.7},
      {"molecule": "NC(=O)c1ccccc1", "note": "[BENZAMIDE]", "Log S": -0.96},
      {"molecule": "O=[N+]([O-])c1ccccc1", "note": "[NITROBENZENE]", "Log S": -1.8},
      {"molecule": "CC/C(=C(/CC)c1ccc(O)cc1)c1ccc(O)cc1", "note": "[DIETHYLSTILBESTROL]", "Log S": -4.07},
      {"molecule": "O=C(O)c1ccccc1", "note": "[BENZOIC ACID]", "Log S": -1.55},
      {"molecule": "Oc1cccc(Cl)c1Cl", "Log S": -1.3},
      {"molecule": "Cc1ccc(O)cc1", "note": "[p-CRESOL]", "Log S": -0.73},
      {"molecule": "Nc1ccccc1", "note": "[ANILINE]", "Log S": -0.41},
      {"molecule": "COC1=CC(=O)C[C@@H](C)[C@]12Oc1c(Cl)c(OC)cc(OC)c1C2=O", "note": "[GRISEOFULVIN]", "Log S": -4.07},
      {"molecule": "Cc1ccccc1", "note": "[TOLUENE]", "Log S": -2.21},
      {"molecule": "O=C1Nc2ccc(Cl)cc2C(c2ccccc2Cl)=NC1O", "note": "(centres undefined) [LORAZEPAM]", "Log S": -3.6},
      {"molecule": "C1COCCN1", "note": "[MORPHOLINE]", "Log S": 1.97},
      {"molecule": "CCCCCC", "note": "[HEXANE]", "Log S": -3.84},
      {"molecule": "COC(=O)[C@@H]1C2CC[C@@H](C[C@@H]1OC(=O)c1ccccc1)N2C", "note": "(single isomer, unassigned) [COCAINE]", "Log S": -2.25},
      {"molecule": "CCCO", "note": "[PROPANOL]", "Log S": 0.62},
      {"molecule": "c1ccc2c(c1)oc1ccccc12", "note": "[DIBENZOFURAN]", "Log S": -4.6},
      {"molecule": "c1ccc2ncccc2c1", "note": "[QUINOLINE]", "Log S": -1.3},
      {"molecule": "COC(C)=O", "note": "[ACETIC ACID METHYL ESTER]", "Log S": 0.46},
      {"molecule": "c1ccc2[nH]ccc2c1", "note": "[INDOLE]", "Log S": -1.21},
      {"molecule": "O=C1CN(/N=C/c2ccc([N+](=O)[O-])o2)C(=O)N1", "note": "[NITROFURANTOIN]", "Log S": -3.38},
      {"molecule": "O=C(O)c1ccccc1O", "note": "[SALICYLIC ACID]", "Log S": -1.82},
      {"molecule": "C=C(C)C1CC=C(C)C(=O)C1", "note": "(centres undefined) [CARVONE]", "Log S": -2.06},
      {"molecule": "c1ccc(-c2ccccc2)cc1", "note": "[BIPHENYL]", "Log S": -4.35},
      {"molecule": "CC(=O)CC(c1ccccc1)c1c(O)c2ccccc2oc1=O", "note": "(centres undefined) [WARFARIN]", "Log S": -4.26},
      {"molecule": "CN(C)CCCN1c2ccccc2Sc2ccc(Cl)cc21", "note": "[CHLORPROMAZINE]", "Log S": -5.1},
      {"molecule": "COc1ccccc1", "note": "[ANISOLE]", "Log S": -1.85},
      {"molecule": "CCO", "note": "[ALCOHOL]", "Log S": 1.1},
      {"molecule": "Clc1c(Cl)c(Cl)c(-c2ccccc2)c(Cl)c1Cl", "Log S": -7.78}
    ]}
  ]
}
